Target: Cannabinoid receptor 2 (Homo sapiens, UniProt P34972)
Assay: Radioligand Binding Assay: The affinity of the compounds of the invention for cannabinoid receptors was determined using recommended amounts of membrane preparations (PerkinElmer) of human embryonic kidney (HEK) cells expressing the human CNR1 or CNR2 receptors in conjunction with 1.5 or 2.6 nM [3H]-CP-55,940 (Perkin Elmer) as radioligand, respectively. Binding was performed in binding buffer (50 mM Tris, 5 mM MgCl2, 2.5 mM EDTA, and 0.5% (wt/vol) fatty acid free BSA, pH 7.4 for CB1 receptor and 50 mM Tris, 5 mM MgCl2, 2.5 mM EGTA, and 0.1% (wt/vol) fatty acid free BSA, pH 7.4 for CB2 receptor) in a total volume of 0.2 mL for 1 h at 30° C. shaking. The reaction was terminated by rapid filtration through microfiltration plates coated with 0.5% polyethylenimine (UniFilter GF/B filter plate; Packard). Bound radioactivity was analyzed for Ki using nonlinear regression analysis (Activity Base, ID Business Solution, Limited), with the Kd values for [3H]CP55,940 determined from saturation experiments.

Chain of Cannabinoid receptor 2 (P34972 whole entry): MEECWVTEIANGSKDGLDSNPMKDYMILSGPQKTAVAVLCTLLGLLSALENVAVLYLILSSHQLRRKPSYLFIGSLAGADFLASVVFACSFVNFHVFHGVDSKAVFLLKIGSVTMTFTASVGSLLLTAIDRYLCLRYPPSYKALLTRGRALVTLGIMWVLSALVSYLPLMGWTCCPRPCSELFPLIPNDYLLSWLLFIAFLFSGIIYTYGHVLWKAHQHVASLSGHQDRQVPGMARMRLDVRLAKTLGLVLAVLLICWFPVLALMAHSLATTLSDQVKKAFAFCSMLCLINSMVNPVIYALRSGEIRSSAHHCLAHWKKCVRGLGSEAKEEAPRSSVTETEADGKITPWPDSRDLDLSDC

SMILES: CC(C)(C)c1nc(N2CCC(F)(F)C2)c2nn(Cc3ccc(C4(C(F)(F)F)N=N4)cc3Cl)nc2n1
- Ki: 2340 nM

Source: ChEMBL document CHEMBL5727383, “[1,2,3]triazolo[4,5-D]pyrimidine derivatives” (2019)
